Measured values as given in BindingDB's records for patent US20250091994 (Kobe University, 2025).

The compounds below were run against GTPase HRas [G12V] (Homo sapiens, UniProt P01112, G12V) (assay: In Vitro Ras-Raf Binding Inhibitory Activity Assay).
Description: The in vitro Ras-Raf binding inhibitory activity of the compound of the present invention was evaluated by an ELISA method described below. GST-c-Raf-1 RBD diluted with a Ras-Raf binding buffer (50 mM Tris-HCl pH7.4, 150 mM NaCl, 5 mM MgCl2, 1 mM EDTA, and 1% Triton-X100) was added to each well of a glutathione-coated 96-well plate (Thermo Fisher Scientific.), and was incubated at 30° C. for 1 hour, to immobilize Raf on the well. The unbound free Raf was eliminated by washing the well with the Ras-Raf binding buffer three times. Subsequently, GTPTS-bound HRasG12V diluted with the Ras-Raf binding buffer and each compound solution (final DMSO concentration: 10%) were applied to each well, and the resulting mixture was then incubated at 30° C. for 1 hour, so that Ras and Raf were allowed to bind to each other. Thereafter, the plate was washed with the Ras-Raf binding buffer twice, and was then subjected to a blocking treatment at room temperature for 20 minutes, using TBS-Tween {10 mM Tris-HCl pH 7.4, 150 mM NaCl, and 0.05% (w/v) Tween-20}-5% (w/v) bovine serum albumin (BSA). After that, an anti-HRas antibody (C-20, Santa Cruz) or an anti-HRas antibody (259, Santa Cruz), which had been 1000 times diluted with TBS-Tween-5% BSA, was added to the reaction mixture, and incubated at room temperature for 1 hours. After the treatment with the primary antibody, the plate was washed with TBS-Tween-5% BSA three times, and a horseradish peroxidase-labeled secondary antibody against rabbit immunoglobulin G (GE Healthcare) of 1000 times diluted with TBS-Tween-5% BSA, was added to the plate, followed by incubation at room temperature for 1 hour. After the treatment with the secondary antibody, the plate was washed with TBS-Tween-5% BSA three times, and a substrate solution (TMB) was then added to the plate, followed by incubation at room temperature for 15 minutes for coloration. Finally, 2 M H2SO4 was added to stop color development (coloration reaction kit: Nacalai Tesque).

GTPase HRas [G12V], sequence (P01112 whole entry G12V, looked up): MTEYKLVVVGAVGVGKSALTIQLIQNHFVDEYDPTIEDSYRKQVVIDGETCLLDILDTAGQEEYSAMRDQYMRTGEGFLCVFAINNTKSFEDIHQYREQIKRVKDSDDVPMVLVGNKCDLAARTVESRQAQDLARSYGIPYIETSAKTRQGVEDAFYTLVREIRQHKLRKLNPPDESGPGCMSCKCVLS

Row | Compound | IC50 [nM]
1 | COc1cc(/C=C2/C(=O)c3ccccc3N2C(C)=O)ccc1OCC(=O)Nc1ccccc1 [US20250091994, Example 15] | 7300
2 | CC(=O)N1/C(=C\c2ccc3cc(CCC(=O)N4CCOCC4)ccc3n2)C(=O)c2ccccc21 [US20250091994, Example 45] | 1200
3 | CC(=O)N1CCc2cc(-c3cc(/C=C4/C(=O)c5ccccc5N4C(C)=O)nc4ccc(C(=O)N5CCOCC5)cc34)ccc2C1 [US20250091994, Example 144] | 800
4 | CC(=O)N1CCc2cc(-c3c(C(=O)N4CCOCC4)ccc4nc(/C=C5/C(=O)c6ccccc6N5C(C)=O)ccc34)ccc2C1 [US20250091994, Example 200] | 1000
5 | COc1cc(/C=C2/C(=O)c3ccccc3N2C(=O)c2ccccc2)ccc1OCC(N)=O [US20250091994, Example 49] | 13000
6 | CC(=O)N1/C(=C/c2nc3cc(C(=O)N4CCOCC4)ccc3s2)C(=O)c2ccccc21 [US20250091994, Example 48] | 3500
7 | CC(=O)N1/C(=C\c2cc(On3nnc4cccnc43)c3cc(C(=O)N4CCOCC4)ccc3n2)C(=O)c2ccccc21 [US20250091994, Example 112] | 550
8 | COC1(CN2CCN(C(=O)c3ccc4nc(/C=C5/C(=O)c6ccccc6N5C(C)=O)ccc4c3)CC2)COC1 [US20250091994, Example 119] | 2900
9 | CC(=O)N1C(=Cc2cc(-c3cccc4ccccc34)c3cc(C(=O)N4CCOCC4)ccc3n2)C(=O)c2ccccc21 [US20250091994, Example 118] | 730
10 | CC(=O)N1/C(=C\c2nc3ccc(C(=O)N4CCOCC4)cc3s2)C(=O)c2ccccc21 [US20250091994, Example 59] | 4000
11 | CC(=O)N1/C(=C/c2cc(-c3ccnc4ccccc34)c3cc(C(=O)N4CCOCC4)ccc3n2)C(=O)c2ccccc21 [US20250091994, Example 117] | 1100
12 | COc1cc(/C=C2/C(=O)c3ccccc3N2C(C)=O)ccc1OCC(N)=O [US20250091994, Example 1] | 6900
13 | CC(=O)N1CCc2cc(-c3cc(/C=C4/C(=O)c5ccccc5N4C(C)=O)nc4ccccc34)ccc2C1 [US20250091994, Example 187] | 500
14 | CC(=O)N1C(=Cc2ccc3cc(CNC4CCOCC4)ccc3n2)C(=O)c2ccccc21 [US20250091994, Example 131] | 1500
15 | CC(=O)N1/C(=C\c2cc(-c3cnn(C)c3)c3ccccc3n2)C(=O)c2ccccc21 [US20250091994, Example 177] | 800
16 | CC(=O)N1C(=Cc2ccc3cc(C(=O)N4CCOCC4)ccc3c2)C(=O)c2ccccc21 [US20250091994, Example 66] | 2300
17 | CC(=O)N1C(=Cc2ccc(OCC(=O)N3CCOCC3)c(-c3ccccc3)c2)C(=O)c2ccccc21 [US20250091994, Example 29] | 13000
18 | CC(=O)N1/C(=C\c2ccc(OCC(=O)N3CCOCC3)cn2)C(=O)c2ccccc21 [US20250091994, Example 22] | 13000
19 | COc1cc(C=C2C(=O)c3c(F)cccc3N2C(C)=O)ccc1OCC(=O)N1CCOCC1 [US20250091994, Example 104] | 9000
20 | CC(=O)N1/C(=C\c2cc(-c3ncccn3)c3cc(C(=O)N4CCOCC4)ccc3n2)C(=O)c2ccccc21 [US20250091994, Example 189] | 1500
21 | CC(=O)N1/C(=C/c2nc3ccc(CNC4CCOCC4)cc3s2)C(=O)c2ccccc21 [US20250091994, Example 135] | 790
22 | CC(=O)N1C(=Cc2cc(-c3cncnc3)c3cc(C(=O)N4CCOCC4)ccc3n2)C(=O)c2ccccc21 [US20250091994, Example 185] | 1600
23 | CC(=O)N1/C(=C\c2cc(C#N)c3cc(C(=O)N4CCOCC4)ccc3n2)C(=O)c2ccccc21 [US20250091994, Example 86] | 1800
24 | CC(=O)N1/C(=C\c2nc(-c3cnn(C)c3)c3ccccc3n2)C(=O)c2ccccc21 [US20250091994, Example 203] | 600
25 | CC(=O)N1C(=Cc2cc(-c3cccnc3-c3ccccc3)c3cc(C(=O)N4CCOCC4)ccc3n2)C(=O)c2ccccc21 [US20250091994, Example 94] | 660
26 | CC(=O)N1/C(=C\c2ccc3cc(OCC(=O)N4CCOCC4)ccc3n2)C(=O)c2ccccc21 [US20250091994, Example 65] | 2400
27 | CC(=O)N1/C(=C\c2cc(C(N)=O)c3cc(C(=O)N4CCOCC4)ccc3n2)C(=O)c2ccccc21 [US20250091994, Example 111] | 1000
28 | CC(=O)N1/C(=C/c2nc3ccc(/C=C/S(=O)(=O)N4CCOCC4)cc3s2)C(=O)c2ccccc21 [US20250091994, Example 43] | 7100
29 | CC(=O)N1/C(=C\c2cc(-c3cccnc3)c3cc(C(=O)N4CCOCC4)ccc3n2)C(=O)c2ccccc21 [US20250091994, Example 85] | 580
30 | CC(=O)N1C(=Cc2ccc3ccc(C(=O)N4CCOCC4)cc3n2)C(=O)c2ccccc21 [US20250091994, Example 62] | 5600

Continued, values first:

Row | IC50 [nM] | Compound
31 | 400 | CC(=O)N1C(=Cc2cc(-c3ccc4c(c3)CCN(C)C4)c3cc(C(=O)N4CCOCC4)ccc3n2)C(=O)c2ccccc21 [US20250091994, Example 173]
32 | 2100 | CC(=O)N1/C(=C\c2ccc3c(-c4cnn(C)c4)c(C(=O)N4CCOCC4)ccc3n2)C(=O)c2ccccc21 [US20250091994, Example 199]
33 | 1100 | CC(=O)N1C(=Cc2ccc3cc(CNS(C)(=O)=O)ccc3n2)C(=O)c2ccccc21 [US20250091994, Example 64]
34 | 1800 | CC(=O)N1C(=Cc2cc(C(=O)N3CCN(C4COC4)CC3)c3ccccc3n2)C(=O)c2ccccc21 [US20250091994, Example 204]
35 | 400 | CC(=O)N1CCc2cc(-c3cc(/C=C4/C(=O)c5ccccc5N4C(C)=O)nc4ccc(CNC5CCOCC5)cc34)ccc2C1 [US20250091994, Example 209]
36 | 680 | CC(=O)Nc1cc(/C=C2/C(=O)c3ccccc3N2C(C)=O)nc2ccc(C(=O)N3CCOCC3)cc12 [US20250091994, Example 113]
37 | 4700 | CC(=O)N1/C(=C\c2ccc3cc(C(=O)N4CCN(C5COC5)CC4)ccc3n2)C(=O)c2ccccc21 [US20250091994, Example 41]
38 | 780 | CC(=O)N1/C(=C/c2nc3cc(C(=O)N4CC(C)OC(C)C4)ccc3s2)C(=O)c2ccccc21 (centres undefined) [US20250091994, Example 99]
39 | 580 | CCCCOc1cc(/C=C2/C(=O)c3ccccc3N2C(C)=O)nc2ccc(C(=O)N3CCOCC3)cc12 [US20250091994, Example 84]
40 | 7900 | COc1cc(/C=C2/C(=O)c3ccccc3N2C(C)=O)ccc1OCC(=O)N1CCOCC1 [US20250091994, Example 2]
41 | 6000 | CC(=O)N1C(=Cc2ccc3cc(C(=O)N4CCNCC4)ccc3n2)C(=O)c2ccccc21 [US20250091994, Example 139]
42 | 2800 | COc1cc(C=C2C(=O)c3ccccc3N2C(C)=O)ccc1OCCO [US20250091994, Example 125]
43 | 2000 | CC(=O)NCc1ccc2nc(/C=C3/C(=O)c4ccccc4N3C(C)=O)ccc2c1 [US20250091994, Example 63]
44 | 2500 | CCOc1cc(/C=C2/C(=O)c3ccccc3N2C(C)=O)ccc1OCC(N)=O [US20250091994, Example 13]
45 | 1400 | CC(=O)N1CCN(c2cc(/C=C3/C(=O)c4ccccc4N3C(C)=O)nc3ccc(C(=O)N4CCOCC4)cc23)CC1 [US20250091994, Example 90]
46 | 2600 | CC(=O)N1/C(=C/c2nc3ccc(/C=C/C(=O)N4CCOCC4)cc3s2)C(=O)c2ccccc21 [US20250091994, Example 108]
47 | 900 | CC(=O)N1C(=Cc2cc(-c3ccc4c(c3)CCNC4=O)c3ccccc3n2)C(=O)c2ccccc21 [US20250091994, Example 190]
48 | 800 | CC(=O)N1/C(=C\c2cc(-c3ccccc3-c3cnn(C)c3)c3cc(C(=O)N4CCOCC4)ccc3n2)C(=O)c2ccccc21 [US20250091994, Example 196]
49 | 2100 | CC(=O)N1/C(=C\c2ccc3cc(CN(C(C)=O)C4CCOCC4)ccc3n2)C(=O)c2ccccc21 [US20250091994, Example 75]
50 | 1400 | CC(=O)N1C(=Cc2cc(CN3CCOCC3=O)c3ccccc3n2)C(=O)c2ccccc21 [US20250091994, Example 183]
51 | 880 | CC(=O)N1C(=Cc2ccc3cc(C(=O)N4CCOCC4)ccc3n2)C(=O)c2ccccc21 [US20250091994, Example 28]
52 | 5700 | COc1cc(/C=C2/C(=O)c3ccccc3N2C(C)=O)ccc1OCC(=O)N1CCCC1 [US20250091994, Example 14]
53 | 510 | CC(=O)N1C(=Cc2cc(-c3ccccc3-c3ccccc3)c3cc(C(=O)NC4CCN(C5COC5)CC4)ccc3n2)C(=O)c2ccccc21 [US20250091994, Example 97]
54 | 800 | CC(=O)N1/C(=C\c2cc(-c3ccccc3-c3ccccc3)c3cc(C(=O)N4CCC(C(=O)O)CC4)ccc3n2)C(=O)c2ccccc21 [US20250091994, Example 142]
